From patent US8563565B2, “Pyrazoloquinoline derivatives” (Eisai R&D Management Co., Ltd., priority 2011, dated 2013)
pIC50: −log10 of the molar value. Where two headings read alike, the source gives them in different places.

Columns and labels:
[1] = target: T1, human recombinant PDE9 protein (Homo sapiens, UniProt O76083); assay: PDE9 inhibitory activity test (measurement of PDE9 inhibitory action, [3H]-cGMP); assay type: biochemical; conditions: PDE9 IC50, human recombinant PDE9, 30° C., 10 min
T1 construct: His-tag (inferred from the Ni column purification; a myc His-tag vector is named only for the HEK293 expression check); made in house; host or cells: silkworm (pYNG vector, Katakura Industries)
From the text: 1) Preparation of a Human Recombinant PDE9 Protein
An hsPDE9A 1cDNA fragment was amplified by being based on a base sequence (Accession No.: AF048837) of the hsPDE9A1 registered on GenBank data base, and by using the following sequences (Hokkaido System Science Co., Ltd.) as a primer and Human hippocampus cDNA library (Clontech Laboratories, Inc.) as a template DNA, and using Pfu50 DNA polymerase (Invitrogen Corp.), and by a polymerase chain reaction (PCR) of the following condition.
The condition of PCR: [96° C., 5 min]×1 cycle, [(96° C., 10 sec), (57° C., 5 sec), (72° C., 2 min)]×30 cycles
The obtained hsPDE9A 1 cDNA fragment was incorporated in a TOPO-TA cloning vector (Invitrogen Corp.), and the base sequence was checked; and thereafter, the resultant was transfected in a pcDNA 3.1/myc His-tag vector (Invitrogen Corp.) to thereby make a human PDE9 expression vector for mammal cells. The human PDE9 expression vector for mammal cells was transfected with transient expression to an HEK293 cell by using a LIPOFETAMINE 2000 Reagent (Gibco). It was confirmed by Western blot method that the PDE9A expressed in the HEK293 cell, and then, the human PDE9A 1cDNA fragment was transfected in a pYNG vector (Katakura Industries Co., Ltd.) to thereby make an expression vector for insect cells. A supernatant of homogenized silk worm in which a large amount of PDE9 was expressed was purified by an equilibrated Ni column using a buffer A (20 mmol/L Tris-HCl, pH: 8.0, 1 mmol/L DTT, 10 mmol/L imidazole). After 1 hour of mixing of the supernatant and the Ni column, cleaning was carried out using a buffer B (20 mmol/L Tris-HCl, pH: 8.0, 1 mmol/L […]), and elution was carried out using a buffer C (20 mmol/L Tris-HCl, pH: 8.0, 1 mmol/L DTT, 100 mmol/L imidazole). An elution fraction was preparatively collected to thereby obtain a PDE9 enzyme solution.
2) Measurement of PDE9 Inhibitory Action
To 100 μL of a buffer D (40 mmol/L Tris-HCl, pH: 7.4, 10 mmol/L MgCl2, 1 mM DTT, 2 μM cGMP) solution containing [^3H]-cGMP ([…]/mL), 10 μL of a compound solution for evaluation (a solution in which a compound was dissolved in DMSO and diluted so that the DMSO concentration became 5%) and 90 μL of a solution prepared by diluting the PDE9 enzyme solution prepared in the above with a buffer E (40 mmol/L Tris-HCl, pH: 7.4, 10 mmol/L MgCl2, 1 mM DTT, 1 mmol/L EGTA) were added under ice cooling. The resultant mixed solution was incubated at 30° C. for 10 min, and thereafter heated for 2 min in boiled water to stop the enzyme reaction of the PDE9. Then, the resultant was returned to room temperature; 50 μL of 5′-Nucleotidase (Biomol GmbH, 10 units/mL) was added thereto; and the resultant was incubated at 30° C. for 10 min to thereby convert [^3H]-5′-GMP formed in the previous reaction to [^3H]-guanosine. 500 μL of an anion exchange resin (Bio-Rad AG1-X2 resin, mesh size: 200-400, H2O:resin=2:1) was added to the resultant reaction liquid, and allowed to stand for 10 min, and thereafter centrifuged (2,000 rpm, 10 min); and a supernatant in which the [^3H]-guanosine was present was transferred to a LumaPlate (PerkinElmer, Inc.), and the radioactivity was measured by a TopCount NXT microplate scintillation and luminescence counter (PerkinElmer, Inc.).
The inhibition percentage of the evaluation compound was calculated using the following expression, taking the radioactivity of a control containing no evaluation compound to be (A), the radioactivity of a blank containing no enzyme to be (B), and the radioactivity of the evaluation compound to be (C). Inhibition percentage=100−{[(C)−(B)]/[(A)−(B)]}×100(%)
The IC50 value for PDE9 of the evaluation compound was determined from inhibition percentage for various concentrations.

[2] = tested on: cGMP in the cerebrospinal fluid; assay: Effect on rodent cerebrospinal fluid cGMP (rat); assay type: in vivo; conditions: po, read-out: % CSF cGMP increase from vehicle control
Experimental: (§1) 3) Effect on Rodent Cerebrospinal Fluid cGMP
(§2) The test compound was administered to ICR male mice (Charles River Laboratories Japan, Inc.), Sprague-Dawley male rats (SD) (Charles River Laboratories Japan, Inc.) or Long-Evans male rats (LE) (Institute for Animal Reproduction), and the cerebrospinal fluid was then collected under pentobarbital anesthesia and stored at −20° C. cGMP in the cerebrospinal fluid was measured in accordance with the acetylation EIA procedure of cGMP EIA kit (GE Healthcare) or the non-acetylation procedure of cGMP EIA kit (Cayman) The result was an increase (C) in the amount of cGMP of the test compound-administered group (B) relative to the amount of cGMP of the vehicle-administered group (A), and was calculated using the following formula cGMP increase(C)=[(B)−(A)]/(A)×100(%)

cGMP in the hippocampus = assay: Effect on rodent hippocampal cGMP; assay type: in vivo, rat; conditions: po, read-out: % hippocampal cGMP increase from vehicle control
Experimental: 4) Effect on Rodent Hippocampal cGMP
The test compound was administered to Sprague-Dawley male rats (Charles River Laboratories Japan, Inc.) or Long-Evans male rats (Institute for Animal Reproduction) and then the animals were sacrificed with microwave under pentobarbital anesthesia, and the hippocampus was extracted. After measuring the wet weight, the hippocampus was frozen with liquid nitrogen and stored at −80° C. In the measurement of cGMP in the hippocampus, a 0.5 M perchloric acid/1 mM EDTA solution was added at 5% (w/v) based on the wet weight, and the mixture was homogenized. After the homogenization, the homogenate was centrifuged (10000 rpm, 15 min), and the supernatant was collected. The collected supernatant was neutralized with a 2 M potassium bicarbonate solution and centrifuged (13000 rpm, 10 min). The cGMP concentration in the supernatant was measured in accordance with the non-acetylation EIA procedure of cGMP EIA kit (GE Healthcare). The result was an increase (C) in the amount of cGMP of the test compound-administered group (B) relative to the amount of cGMP of the vehicle-administered group (A), and was calculated using the following formula. cGMP increase(C)=[(B)−(A)]/(A)×100(%)

[3] = tested on: cGMP in the cerebrospinal fluid; assay: Effect on rodent cerebrospinal fluid cGMP (mouse); assay type: in vivo, ICR male mice; conditions: 10 mg/kg p.o., sampling time 0.5 hr
Experimental: as §1, §2

[4] = rat(LE), 30 mg/kg p.o., sampling time 1 hr

T1 sequence (O76083 whole entry): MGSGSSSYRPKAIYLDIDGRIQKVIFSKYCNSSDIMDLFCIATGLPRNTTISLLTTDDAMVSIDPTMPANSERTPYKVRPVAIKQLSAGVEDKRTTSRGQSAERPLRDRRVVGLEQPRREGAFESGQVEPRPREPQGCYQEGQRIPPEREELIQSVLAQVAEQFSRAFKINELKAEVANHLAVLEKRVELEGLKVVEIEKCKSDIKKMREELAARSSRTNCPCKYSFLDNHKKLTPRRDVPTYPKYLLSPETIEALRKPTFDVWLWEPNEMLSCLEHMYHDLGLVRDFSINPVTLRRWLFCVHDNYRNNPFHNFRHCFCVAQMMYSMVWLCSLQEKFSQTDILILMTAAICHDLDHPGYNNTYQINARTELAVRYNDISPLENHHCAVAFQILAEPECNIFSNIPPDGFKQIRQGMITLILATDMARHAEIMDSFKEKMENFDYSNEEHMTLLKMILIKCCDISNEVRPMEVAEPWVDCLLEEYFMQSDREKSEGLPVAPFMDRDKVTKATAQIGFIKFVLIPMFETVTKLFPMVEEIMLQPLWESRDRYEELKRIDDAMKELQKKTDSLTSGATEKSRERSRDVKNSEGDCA

SMILES | pIC50 [1] | change in vivo at 30 mg/kg ([2]; Rattus norvegicus, 1 h) [%] | change in vivo at 30 mg/kg (cGMP in the hippocampus; Rattus norvegicus, 1 h) [%] | change in vivo at 10 mg/kg ([2]; Rattus norvegicus, 1 h) [%] | change in vivo at 10 mg/kg (cGMP in the hippocampus; Rattus norvegicus, 1 h) [%] | change in vivo at 30 mg/kg [2, 4] [%] | change in vivo at 30 mg/kg (cGMP in the hippocampus; [4]) [%] | % CSF cGMP increase from vehicle control [3] [%]
COc1cc(C)c(-c2ccc3c(c2)[nH]c(=O)c2cnn(C4CCOC4)c23)c(C)n1 (single isomer, unassigned; (-)) [29 (−), (−)-7-(6-methoxy-2,4-dimethylpyridin-3-yl)-1-(tetrahydrofuran-3-yl)-1H-pyrazolo[4,3-c]quinolin-4(5H)-one] | 7.51 | 238 | 34 | – | – | – | – | –
COc1ncc(C)c(-c2cc3[nH]c(=O)c4cnn([C@H]5CCOC5)c4c3cc2F)c1C [Example 53, (S)-8-fluoro-7-(2-methoxy-3,5-dimethylpyridin-4-yl)-1-(tetrahydrofuran-3-yl)-1H-pyrazolo[4,3-c]quinolin-4(5H)-one] | 8.00 | – | – | 202 | 27 | – | – | –
COc1cc(C)c(-c2cc3[nH]c(=O)c4cnn([C@H]5CCOC5)c4c3cc2F)c(C)n1 [Example 55, (S)-8-fluoro-7-(6-methoxy-2,4-dimethylpyridin-3-yl)-1-(tetrahydrofuran-3-yl)-1H-pyrazolo[4,3-c]quinolin-4(5H)-one] | 7.76 | – | – | 323 | 17 | – | – | –
Cc1cc(OC(C)C)nc(C)c1-c1ccc2c(c1)[nH]c(=O)c1cnn([C@H]3CCOC3)c12 [Example 51, (S)-7-(6-isopropyloxy-2,4-dimethylpyridin-3-yl)-1-(tetrahydrofuran-3-yl)-1H-pyrazolo[4,3-c]quinolin-4(5H)-one] | 8.31 | – | – | 189 | 17 | – | – | –
COc1nc(C)cc(C)c1-c1cc2[nH]c(=O)c3cnn([C@H]4CCOC4)c3c2cc1F [Example 54, (S)-8-fluoro-7-(2-methoxy-4,6-dimethylpyridin-3-yl)-1-(tetrahydrofuran-3-yl)-1H-pyrazolo[4,3-c]quinolin-4(5H)-one] | 8.06 | – | – | 282 | 23 | – | – | –

Now from value to compound, other results behind:

pIC50 [1] | SMILES | change in vivo at 30 mg/kg ([2]; Rattus norvegicus, 1 h) [%] | change in vivo at 30 mg/kg (cGMP in the hippocampus; Rattus norvegicus, 1 h) [%] | change in vivo at 10 mg/kg ([2]; Rattus norvegicus, 1 h) [%] | change in vivo at 10 mg/kg (cGMP in the hippocampus; Rattus norvegicus, 1 h) [%] | change in vivo at 30 mg/kg [2, 4] [%] | change in vivo at 30 mg/kg (cGMP in the hippocampus; [4]) [%] | % CSF cGMP increase from vehicle control [3] [%]
8.05 | COc1ncc(C)c(-c2ccc3c(c2)[nH]c(=O)c2cnn(C4CCOCC4)c23)c1C [Example 15, 7-(2-methoxy-3,5-dimethylpyridin-4-yl)-1-(tetrahydro-2H-pyran-4-yl)-1H-pyrazolo[4,3-c]quinolin-4(5H)-one] | – | – | – | – | 203 | 33 | –
8.36 | COc1nc(C)cc(C)c1-c1ccc2c(c1)[nH]c(=O)c1cnn(C3CCOCC3)c12 [Example 4, 7-(2-methoxy-4,6-dimethylpyridin-3-yl)-1-(tetrahydro-2H-pyran-4-yl)-1H-pyrazolo[4,3-c]quinolin-4(5H)-one] | 246 | 25 | – | – | – | – | –
7.98 | COc1ncc(C)c(-c2ccc3c(c2)[nH]c(=O)c2cnn(C4COCCOC4)c23)c1C [Example 43, 1-(1,4-dioxepan-6-yl)-7-(2-methoxy-3,5-dimethylpyridin-4-yl)-1H-pyrazolo[4,3-c]quinolin-4(5H)-one] | – | – | 292 | 33 | – | – | –
7.60 | Cc1cc(C)c(-c2ccc3c(c2)[nH]c(=O)c2cnn(C4CCOCC4)c23)c(C)n1 [Example 2, 7-(2,4,6-trimethylpyridin-3-yl)-1-(tetrahydro-2H-pyran-4-yl)-1H-pyrazolo[4,3-c]quinolin-4(5H)-one] | – | – | – | – | – | – | 110
